Structures are written as SMILES.

One assay addresses T1, human FPR1 (Homo sapiens, UniProt P21462).
T1 sequence (P21462 1-350): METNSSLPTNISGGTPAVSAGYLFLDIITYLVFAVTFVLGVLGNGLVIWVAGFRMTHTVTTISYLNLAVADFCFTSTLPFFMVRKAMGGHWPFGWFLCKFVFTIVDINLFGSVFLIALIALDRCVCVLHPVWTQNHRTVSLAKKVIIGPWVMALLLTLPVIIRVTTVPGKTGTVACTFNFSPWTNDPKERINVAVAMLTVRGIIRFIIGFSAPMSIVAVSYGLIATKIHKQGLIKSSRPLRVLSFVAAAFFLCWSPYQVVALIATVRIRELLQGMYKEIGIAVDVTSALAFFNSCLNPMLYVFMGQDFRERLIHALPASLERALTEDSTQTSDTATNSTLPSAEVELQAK
The experiment in a line: FPR1 cyclic adenosine monophosphate (cAMP) assay. It counts as cell-based. To be noted: CHO cells overexpressing human FPR1; forskolin 10 μM; inhibition of cAMP production; HTRF; read-out: hFPR1 cAMP2 EC50. In outline:
(§1)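 CHO cells overexpressing human FPR1 (4,000/well, 10 μM forskolin) or FPR2 (2,000/well, 5 μM forskolin) were incubated with 200 μM IBMX and compound (0.020 nM–100 μM, 1% DMSO) for 30 min at room temperature. Intracellular cAMP was measured by HTRF against a cAMP standard curve, and inhibition of cAMP production was fitted to a 4-parameter logistic.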

The next assay concerns the target T2, human FPR2 (Homo sapiens, UniProt P25090).
T2 sequence (P25090 1-351): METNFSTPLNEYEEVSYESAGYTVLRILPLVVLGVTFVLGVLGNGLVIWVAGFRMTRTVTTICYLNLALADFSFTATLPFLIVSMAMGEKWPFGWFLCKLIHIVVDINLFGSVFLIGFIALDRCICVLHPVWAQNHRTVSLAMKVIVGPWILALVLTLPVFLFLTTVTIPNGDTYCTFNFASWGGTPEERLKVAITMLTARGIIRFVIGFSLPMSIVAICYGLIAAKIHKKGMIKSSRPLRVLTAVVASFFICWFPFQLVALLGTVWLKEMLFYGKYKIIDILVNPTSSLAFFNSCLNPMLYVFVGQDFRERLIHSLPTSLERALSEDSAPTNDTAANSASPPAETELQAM
Kind of assay: FPR2 cyclic adenosine monophosphate (cAMP) assay. The following applies: CHO cells overexpressing human FPR2; forskolin 5 μM; inhibition of cAMP production; HTRF; read-out: hFPR2 cAMP2 EC50. It counts as cell-based. Put shortly: as §1

What is called EC50 is the concentration at which the effect is half-maximal. `CCNC(=O)N1CCC(c2cn(-c3c(F)cc(OC)cc3F)c(NC(=O)c3ccc(OC(F)F)cc3)n2)CC1` [Example 66, 4-[1-(2,6-Difluoro-4-methoxyphenyl)-2-[4-(difluoromethoxy)benzamido]-1H-imidazol-4-yl]-N-ethylpiperidine-1-carboxamide]: the EC50 was 540 nM on human FPR1 and 28 nM at human FPR2.

In the case of `COc1cc(F)c(-n2cc(C3CCN(C(=O)CCC(N)=O)CC3)nc2NC(=O)c2ccc(OC(F)F)cc2)c(F)c1` [Example 67, N-{4-[1-(3-Carbamoylpropanoyl)piperidin-4-yl]-1-(2,6-difluoro-4-methoxyphenyl)-1H-imidazol-2-yl}-4-(difluoromethoxy)benzamide], the EC50 on human FPR1 worked out at 83 nM; on human FPR2 it was 54 nM.

Take `COc1cc(F)c(-n2cc(C3CCN(C(=O)CCO)CC3)nc2NC(=O)c2ccc(OC(F)F)cc2)c(F)c1` [Example 68, N-[1-(2,6-difluoro-4-methoxyphenyl)-4-[1-(3-hydroxypropanoyl)piperidin-4-yl]-1H-imidazol-2-yl]-4-(difluoromethoxy)benzamide]: the results for the EC50 on human FPR1 and at human FPR2 were 110 nM and 45 nM, respectively.

Take `COc1cc(F)c(-n2cc(C(=O)N3CCC(CO)CC3)nc2NC(=O)c2ccc(OC(F)F)cc2)c(F)c1` [Example 69, N-[1-(2,6-difluoro-4-methoxyphenyl)-4-[4-(hydroxymethyl)piperidine-1-carbonyl]-1H-imidazol-2-yl]-4-(difluoromethoxy)benzamide]: the EC50 at human FPR1 stood at 2990 nM; at human FPR2, 86 nM.

As for `COc1cc(F)c(-n2cc(C(C)C)nc2NC(=O)c2ccc(OC(F)F)cc2)c(F)c1` [Example 70, N-(1-(2,6-Difluoro-4-methoxyphenyl)-4-isopropyl-1H-imidazol-2-yl)-4-(difluoromethoxy)benzamide], the EC50 at human FPR1 was found to be 970 nM; on human FPR2, 31 nM.

Regarding `COc1cc(F)c(-n2cc(Cc3ccccc3)nc2NC(=O)c2ccc(OC(F)F)cc2)c(F)c1` [Example 71, N-[4-benzyl-1-(2,6-difluoro-4-methoxyphenyl)-1H-imidazol-2-yl]-4-(difluoromethoxy)benzamide], the half-maximal effective concentration (EC50) at human FPR1 was determined as 1300 nM; on human FPR2, 46 nM.

Turning to `CCOC(=O)Cc1cn(-c2c(F)cc(OC)cc2F)c(NC(=O)c2ccc(OC(F)F)cc2)n1` [Example 72, ethyl 2-[1-(2,6-difluoro-4-methoxyphenyl)-2-[4-(difluoromethoxy)benzamido]-1H-imidazol-4-yl]acetate], the concentration for a half-maximal effect (EC50) was 470 nM at human FPR1 and 22 nM at human FPR2.

For the compound `COc1cc(F)c(-n2cc(Cc3nnc(C)o3)nc2NC(=O)c2ccc(OC(F)F)cc2)c(F)c1` [Example 73, N-(1-(2,6-Difluoro-4-methoxyphenyl)-4-((5-methyl-1,3,4-oxadiazol-2-yl)methyl)-1H-imidazol-2-yl)-4-(difluoromethoxy)benzamide], the figures for the EC50 on human FPR1 and at human FPR2 were 300 nM and 23 nM, respectively.

Turning to `COc1cc(F)c(-n2cc(C3CC(O)C3)nc2NC(=O)c2ccc(OC(F)F)cc2)c(F)c1` (stereo not drawn) [Example 74, N-(1-(2,6-Difluoro-4-methoxyphenyl)-4-(3-hydroxycyclobutyl)-1H-imidazol-2-yl)-4-(difluoromethoxy)benzamide], the EC50 on human FPR1 amounted to 250 nM; at human FPR2, 7 nM.

As for `COc1cc(F)c(-n2cc(C3CC4(CNC4)C3)nc2NC(=O)c2ccc(OC(F)F)cc2)c(F)c1` [Example 75, N-(1-(2,6-Difluoro-4-methoxyphenyl)-4-(2-azaspiro[3.3]heptan-6-yl)-1H-imidazol-2-yl)-4-(difluoromethoxy)benzamide], the results for the EC50 on human FPR1 and on human FPR2 were above 10000 nM and 23 nM, respectively.

On to `COc1cc(F)c(-n2cc(C3CCC(O)CC3)nc2NC(=O)c2ccc(OC(F)F)cc2)c(F)c1` (stereo not drawn) [Example 76, N-(1-(2,6-Difluoro-4-methoxyphenyl)-4-(4-hydroxycyclohexyl)-1H-imidazol-2-yl)-4-(difluoromethoxy)benzamide], for which the EC50 at human FPR1 turned out to be 240 nM; at human FPR2 it was 10 nM.

As for `COc1cc(F)c(-n2cc(Cc3nc4ncc(F)cc4[nH]3)nc2NC(=O)c2ccc(OC(F)F)cc2)c(F)c1` [Example 77, N-(1-(2,6-Difluoro-4-methoxyphenyl)-4-((6-fluoro-1H-imidazo[4,5-b]pyridin-2-yl)methyl)-1H-imidazol-2-yl)-4-(difluoromethoxy)benzamide], the EC50 was found to be 120 nM on human FPR1 and 13 nM at human FPR2.

With `COc1cc(F)c(-n2cc(Cc3ccccn3)nc2NC(=O)c2ccc(OC(F)F)cc2)c(F)c1` [Example 78, N-[1-(2,6-difluoro-4-methoxyphenyl)-4-[(pyridin-2-yl)methyl]-1H-imidazol-2-yl]-4-(difluoromethoxy)benzamide], the EC50 at human FPR1 was 870 nM; on human FPR2, 56 nM.

Regarding `COc1cc(F)c(-n2cc(C3CNC3)nc2NC(=O)c2ccc(OC(F)F)cc2)c(F)c1` [Example 79, N-[4-(azetidin-3-yl)-1-(2,6-difluoro-4-methoxyphenyl)-1H-imidazol-2-yl]-4-(difluoromethoxy)benzamide], the EC50 at human FPR1 amounted to 4200 nM; at human FPR2, 81 nM.

With `COc1cc(F)c(-n2cc(-c3ccn[nH]3)nc2NC(=O)c2ccc(OC(F)F)cc2)c(F)c1` [Example 80, N-[1-(2,6-difluoro-4-methoxyphenyl)-4-(1H-pyrazol-5-yl)-1H-imidazol-2-yl]-4-(difluoromethoxy)benzamide], the EC50 on human FPR1 came out at 500 nM; on human FPR2, 59 nM.

Regarding `COc1cc(F)c(-n2cc(C3CC(N)C3)nc2NC(=O)c2ccc(OC(F)F)cc2)c(F)c1` (stereo not drawn) [Example 81, N-[4-(3-aminocyclobutyl)-1-(2,6-difluoro-4-methoxyphenyl)-1H-imidazol-2-yl]-4-(difluoromethoxy)benzamide], the EC50 worked out at 5400 nM at human FPR1 and 4 nM on human FPR2.

With `COc1cc(F)c(-n2cc(C3CC(NCC(F)(F)F)C3)nc2NC(=O)c2ccc(OC(F)F)cc2)c(F)c1` (stereo not drawn) [Example 82, N-(1-(2,6-Difluoro-4-methoxyphenyl)-4-(3-((2,2,2-trifluoroethyl)amino)cyclobutyl)-1H-imidazol-2-yl)-4-(difluoromethoxy)benzamide], the EC50 worked out at 85 nM on human FPR1 and 10 nM on human FPR2.

Turning to `COc1cc(F)c(-n2cc(C3CC(NS(C)(=O)=O)C3)nc2NC(=O)c2ccc(OC(F)F)cc2)c(F)c1` (stereo not drawn) [Example 83, N-[1-(2,6-difluoro-4-methoxyphenyl)-4-(3-methanesulfonamidocyclobutyl)-1H-imidazol-2-yl]-4-(difluoromethoxy)benzamide], the EC50 at human FPR1 amounted to 400 nM; on human FPR2 it was 5 nM.

These data come from patent US20230373930A1, “AMINOIMIDAZOLE FPR2 AGONISTS” (BRISTOL-MYERS SQUIBB COMPANY, priority 2020, published 2023).
